Experimental data as given in patent publication US20100311757A1, “Salarins And Tulearins, Compositions And Uses Thereof” (RAMOT AT TEL-AVIV UNIVERSITY LTD., priority 2007, published 2010).

Tests used:
[1] = system: Ba/F3 cells expressing the EPO-R; test: MTT colorimetric cell proliferation assay, Ba/F3 cells expressing EPO-R; format: cell-based, murine
Experimental: (§1) The anti-cancer activities of the compounds of the invention have been determined in-vitro in human and mouse leukemia cell lines. The procedure was carried out using the colorimetric methyl thiazol tetrazoliumbromide (MTT) assay for measuring cell proliferation (Carmichael et al., (1987), Cancer Res. 47: 936-942).
(§2) The Human leukemia cell lines K562 (Lozzio and Lozzio (1975) Blood, 45, 321-334) and UT7 (Komatsu et al. (1991), Cancer Res. 51, 341-348) were grown in RPMI 1640 and IMDM medium respectively, supplemented with 10% fetal bovine serum (FBS), 2 mM L-glutamine, 100 ug/ml streptomycin and 100 u/ml penicillin. The murine Ba/F3 cell line stably transfected with the erythropoietin receptor (EPO-R) cDNA (D'Andrea et al., (1991), Mol. Cell. Biol. 11, 1980-1987) was cultured in RPMI medium supplemented with recombinant human EPO (rHuEPO, 0.5 U/ml). UT7 cells were cultured in the presence of 2 U/ml rHuEPO. Cells were maintained at 37° C. in a 5% CO2 humidified incubator.
(§3) Cells (4×10^3) were seeded in triplicate into 96-well, flat-bottom culture plates and grown in the presence of the compounds at different concentrations for 24, 48 and 72 hours. Untreated cells served as control. After incubation with the compound, cell growth was determined using the colorimetric methylthiazole tetrazolium bromide (MTT) assay (Mosmann (1983), J Immunol Methods 65, 55-63). Briefly, MTT was added to a final concentration of 5 μg/ml to each well and further incubated for 4 hours at 37° C. After complete solubilization of the dye by acid/alcohol (0.04 N HCl in 2-propanol), plates were read at 570 nm in an ELISA reader, reference 690 nm. Growth of cells exposed to treatment was calculated as the percent of optical density (OD) of the compound-treated cells to that of the non-treated cells.

UT7 = test: MTT colorimetric cell proliferation assay, UT7 cells; format: cell-based, human; conditions: for inhibition of cell growth, dose and time dependence: various concentrations, 24, 48 and 72 hours
Experimental: as §1, §2, §3

[2] = system: Ba/F3, K562 and UT7 cell lines; test: Cell morphology by phase contrast microscopy; format: cell-based, human and mouse; conditions: 0.01 μM or 0.2 μM, over-night
Experimental: Cells were viewed in phase contrast microscopy. The size bar indicates a size of 15 um.
The potential effects of Salarin C on cell proliferation were also tested. Human leukemic cell lines UT-7 and K562, and the murine pro B cell line Ba/F3 which stably expresses the EPO receptor (EPO-R) were used as targets. […] Salarin C at concentrations of 0.0005-0.5 μg/ml was added to the cells for 24 hours, and cell viability was determined by the MTT assay (FIG. 24B). ˜50% inhibition of cell proliferation was obtained at 0.5 μg/ml (1 μM) of Salarin C for the UT-7 cell line and at 0.05 μg/ml (0.1 μM) for the K562 cell line. […] The effect of Salarin C on cell viability was also observed by microscopy (FIG. 25).

K562 = test: MTT colorimetric cell proliferation assay, K562 cells; format: cell-based, human
Experimental: as §1, §2, §3

[3] = system: UT-7, K562 and Ba/F3 cell lines; test: MTT colorimetric cell proliferation assay, statements across the three cell lines; format: cell-based, human and mouse
Experimental: as §1, §2, §3

| Structure (SMILES) | inhibition at 0.5 µg/mL ([1]; Mus musculus, BaF3, Ba/F3 cells expressing EPO-R, 0.5 ug/ml, 72 h of exposure) | inhibition at 1 µg/mL (UT7; Homo sapiens, UT7 cells, 1 μg/ml, 72 h of exposure) | inhibition of cell growth, dose and time dependence (UT7; UT7 cells) | proliferation ([1]; Ba/F3 cells, 0.1 μM, 24 hours) | cell viability ([1]; Ba/F3 cells, 0.5 μg/ml (1 μM), 72 h) | cell viability and morphology by microscopy [2] | cell viability (K562; 0.5 μg/ml (1 μM), 72 h) | inhibition at 0.1 µM (K562; Homo sapiens, 0.05 μg/ml (0.1 μM), 24 hours) | relative potency ([3]; 0.5 μg/ml, 72 h, three tested cell lines) | anti-proliferative activity, dose dependence ([3]; 0.0005-0.5 μg/ml, 24 hours) | IC50 ([3]; 24 hours, across the tested cell lines, read-out: effective concentration range (IC50)) | inhibition at 1 µM (UT7; Homo sapiens, UT7, UT-7 cells, 0.5 μg/ml (1 μM), 24 hours) | cell viability (UT7; UT-7 cells, 0.5 μg/ml (1 μM), 72 h) | inhibition at 0.5 µg/mL (K562; Homo sapiens, 0.5 ug/ml, 72 h of exposure) | inhibition of cell growth, dose and time dependence (K562; various concentrations, 24, 48 and 72 hours) | inhibition at 0.5 µg/mL (UT7; Homo sapiens, UT7 cells, 0.5 ug/ml, 72 h of exposure) |
| --- | --- | --- | --- | --- | --- | --- | --- | --- | --- | --- | --- | --- | --- | --- | --- | --- |
| CCCCCCCC(=O)OCC/C=C/C1OC1C1OC(=O)/C=C\C=C\C(=O)N(C(C)=O)C(=O)/C=C(/C)CCC2OC2C1OC(=O)NC(C)=O (centres unmarked) [Salarin A] | 48% | 45% | in a dose and time dependent manner |  |  |  |  |  |  |  |  |  |  |  |  |  |
| CCCCCCCC(=O)OCC/C=C/C1OC1C1OC(=O)/C=C\C=C\c2nc(oc2C)/C=C(/C)CCC2OC2C1OC(=O)NC(C)=O (centres unmarked) [Salarin C] |  |  |  | completely arrested | abolished nearly all viability | lower viability and characteristics of apoptotic cells | abolished nearly all viability | ~50% | more potent than Salarins A and B and Tulearin A | dose-dependent | 100 to 1000 nM | ~50% | abolished nearly all viability |  |  |  |
| CCCCC/C=C/C(C)=C/C1CC(C)C/C=C/CCC(O)C(OC(N)=O)CCC(C)CC(O)C(C)C(=O)O1 (centres unmarked) [Tulearin A] |  |  | in a dose and time dependent manner |  |  |  |  |  |  |  |  |  |  | 62% | in a dose and time dependent manner | 35% |
